Entries after “also recorded” stand apart in the source; their conditions may differ.
Key:
HeLa cells [1] = assay: AnnexinV/PI flow cytometry apoptosis assay; conditions: 20 μM, 24 h
CaSki cells = assay: AnnexinV/PI flow cytometry apoptosis assay; conditions: 20 μM, 24 h
HeLa cells [2] = assay: Cell numbers; assay type: cell-based; conditions: 20 μM, 24 h
[3] = test system: VHR, PTP1B, CD45, HePTP, Shp2, and YopH; assay type: biochemical
VHR = VHR (Homo sapiens, UniProt P51452); assay: Ki determination, Michaelis-Menten kinetics with pNPP; assay type: biochemical
VHR, sequence (P51452 whole entry): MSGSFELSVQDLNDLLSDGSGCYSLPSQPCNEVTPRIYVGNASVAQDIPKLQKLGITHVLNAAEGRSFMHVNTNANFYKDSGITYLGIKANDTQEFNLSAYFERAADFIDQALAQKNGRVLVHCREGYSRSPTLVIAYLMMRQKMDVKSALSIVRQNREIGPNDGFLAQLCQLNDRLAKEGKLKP

O=C1/C(=C/c2cn(-c3ccccc3)nc2-c2ccc(OCc3ccccc3Cl)cc2)SC(=S)N1CCS(=O)(=O)O [SA2]
Percentage of AnnexinV/PI negative cells versus vehicle (HeLa cells [1]): no difference | Percentage of AnnexinV/PI negative cells versus vehicle (CaSki cells): no difference

O=C1/C(=C/c2cn(-c3ccccc3)nc2-c2ccc(OCc3ccccc3F)cc2)SC(=S)N1CCS(=O)(=O)O [SA3]
HeLa cell numbers, percentage of the DMSO control (HeLa cells [2]): less than 50% | Percentage of AnnexinV/PI negative cells versus vehicle (HeLa cells [1]): no difference | Percentage of AnnexinV/PI negative cells versus vehicle (CaSki cells): no difference

O=C1/C(=C/C=C/c2ccccc2)SC(=S)N1CCS(=O)(=O)O [compound 1, 2-((Z)-4-oxo-5-((E)-3-phenylallylidene)-2-thioxothiazolidin-3-yl)ethane-sulfonic acid]
Selectivity for VHR in counter screen [3]: selectively inhibiting VHR; also recorded: selective for VHR | Inhibition pattern (Lineweaver-Burk plot) (VHR): competitively inhibited VHR; also recorded: clear competitive inhibition pattern | Ki (VHR; Ki, pNPP substrate): 809 nM

COc1ccc(OC)c2c1C(=O)c1ccccc1C2=O [compound 8, 1,4-dimethoxyanthracene-9,10-dione]
Selectivity for VHR in counter screen [3]: selectively inhibiting VHR; also recorded: selective for VHR

From paper PMC2790023 (Journal of medicinal chemistry, 2009)
